Assay results published in patent US20130253179A1, “Functionalization Processes and Reactants Used in Such Processes Using an Isatoic Anhydride or a Derivative Thereof, Biological Molecules Thus Treated and Kits” (priority 2010, published 2013).

Tested on: HIV WT transcript
Assay: NASBA amplification of functionalised, captured and eluted HIV transcripts
Format: biochemical
Procedure: In the preceding example 12, 4 μg of a WT HIV transcript (1083 nucleotides, internal production, bioMérieux batch 841470301, C=3.27E12 copies μl) was biotinylated with different concentrations of the compound (24) (0 mM, 15 mM, 30 mM, 120 mM, 180 mM, i.e. the experiments #1-7 of Table 6). This transcript was then captured on Merck MagPrep 25 Streptavidin magnetic particles, then, after rinsing, the particles were subjected to a 100 mM DTT treatment in PBS 1x pH 7 at 40° C. for one hour, in order to cleave the disulfide bond (SS) and elute the transcripts with —SH anthranilate groups, as shown in FIG. 16. We evaluated the ability of these transcripts to be amplified by the NASBA technology. This evaluation was performed as a comparison with an unfunctionalised “bare” HIV_WT transcript range.
The amplification is performed on a NucliSENS EasyQ instrument (bioMérieux, Lyon, France) and with a NucliSENS EasyQ HIV-1 V2.0 kit (bioMérieux, Lyon, France, ref. 285033, batch 09122106). The software used is NucliSENS EasyQ Director, and the protocol is QL1-60 1.0 (bioMérieux, Lyon, France).
After functionalisation with compound 24, capture and elution in 8 μL of 100 mM DTT, as described in example 12, the transcripts of experiments #2-5 from Table 7 were assayed on RNA 6000 NANO chip with the AGILENT bioanalyzer (Santa Clara, USA), and were diluted in the following concentrations: 1000 copies, 100 copies, 50 copies, 10 copies, 1 copy, 0 copies in 15 μl. An HIV IC transcript (internal control of the same amplified sequence as the WT (wild type) transcript, but detected by a molecular beacon carrying another fluorophore) diluted to 360 copies is added to the 15 μl volume, and will be present in all of the wells in which the amplifications occur. This transcript serves to monitor the correct operation of the amplification. The tests are carried out in triplicate.
Six Accuspheres ENZ II (NucliSENS EasyQ HIV-1 V2.0 kit, ref. 285033, bioMérieux, Lyon, France) are deposited into a 1.5 ml polypropylene tube. A volume of 270 μL of ENZdil H (NucliSENS EasyQ HIV-1 V2.0 kit, ref. 285033, bioMérieux, Lyon, France) is added onto the Accuspheres, and 15 minutes are allowed to pass, for them to dissolve completely. The twelve Accuspheres PRM H (NucliSENS EasyQ HIV-1 V2.0 kit, ref. 285033, bioMérieux, Lyon, France) are deposited into a 1.5 ml polypropylene tube 1080 μL of PRMdi l H (NucliSENS EasyQ HIV-1 V2.0 kit, ref. 285033, bioMérieux, Lyon, France) is added onto these Accuspheres and the mixture is immediately vortex stirred until the Accuspheres dissolve completely. After complete dissolution in the two tubes (mix ENZ II and mix PRM H), these mixtures are centrifuged with a benchtop centrifuge. […]

## Cn1c(=O)oc(=O)c2cc(NC(=O)CCSSCCNC(=O)CCOCCOCCOCCOCCNC(=O)CCCCC3SCC4NC(=O)NC43)ccc21 (stereo not shown) [5Biot PEG4 SS IA Me 24]
15 mM functionalisation reagent
  Minimum number of copies detected: 10 copies
30 mM functionalisation reagent
  Minimum number of copies detected: 10 copies
120 mM functionalisation reagent
  Minimum number of copies detected: 100 copies
180 mM functionalisation reagent
  Minimum number of copies detected: 1000 copies
